Results as given in US6765014B1, “1-Acyl-7-nitroindoline derivatives, their preparation and their use as photocleavable precursors” (Medical Research Council, priority 1999, dated 2004).
Each block holds one compound with its values, some of them ahead of it.

How the values were obtained:
[1] = Quantum yield estimation by laser flash irradiation (347 nm); format: physicochemical
Experimental: Quantum yield estimation for 10. A solution of 1-(2-nitrophenylethyl) phosphate and 10 (each 0.50 mM) together with dithiothreitol (5 mM) was prepared in 25 mM ammonium phosphate, pH 7.0. Aliquots of the solution ([…]) in a 1-mm path length cell were each subjected to one 50-ns flash from a frequency-doubled ruby laser, that delivered 347 nm light with an average energy of 90 mJ (range 83-104 mJ). The combined irradiated solutions were analyzed by reverse-phase HPLC (mobile phase 25 mM Na phosphate, pH 6.0+40% MeOH, 1.5 ml/min). Retention times were 4.2 and 7.2 min for 10 and 1-(2-nitrophenylethyl) phosphate respectively. Quantification was based on peak heights compared to those of the unphotolyzed control. Extinction coefficients at 347 nm used to calculate the relative quantum yields were 2720 and 510 M^−1cm^−1 for 10 and 1-(2-nitrophenylethyl) phosphate respectively. Photolysis and product analysis for compounds 10 and 18.
The product quantum yield (Qp) for photolysis of the glutamate derivative 10 was determined by laser flash irradiation (347 nm) of a solution containing 10 and 1-(2-nitrophenyl)ethyl phosphate (16) (both 0.5 mM in pH 7 phosphate buffer). Conversions by a single flash (˜90 mJ) were 9.7 and 23% respectively (reverse-phase HPLC), leading to Qp=0.043 by comparison with the known value (16) (0.54) for the caged phosphate and after correction for the different extinction coefficients at the irradiation wavelength. Although the value of Qp is low, the relatively high extinction coefficient at ˜350 nm (˜2700 M^−1cm^−1) compared to that of “classical” 2-nitrobenzyl-type caged compounds (˜600 M^−1cm^−1) enables similar photolytic efficiency to be achieved.

[2] = literature value (16); cited from earlier work
[3] = Relative photolysis efficiencies of 8 and 11 (xenon arc lamp, HPLC); format: physicochemical; conditions: after 2 min irradiation, 0.5 mM each, 25 mM Na phosphate pH 7.0, 100 W xenon arc lamp
Experimental: Relative photolysis efficiencies of 8 and 11. A solution containing both 8 and 11 (each 0.5 mM) in 25 mM Na phosphate, pH 7.0 was irradiated in a 1-mm path length cell using light from a 100 W xenon arc lamp which passed through Hoya 340 and Schott WG 305 filters before. illuminating the cell. The extent of photolysis of each compound was determined by reverse-phase HPLC analysis (mobile phase 10 mM Na phosphate, pH 6.0+50% MeOH, 1.5 mL/min). Retention times for 8 and 11 were 3.8 and 7.8 min respectively. After 2 min irradiation, the extents of conversion for compounds 8 and 11 were 40 and 16% respectively.
(§1) Upon comparative photolysis of the 1-glutaryl derivatives 8 and 11 in aqueous solutions at pH 7 and without excluding atmospheric oxygen, the bromo compound 11 was indeed converted ˜2.5-fold less efficiently than 8. Photolysis of 8 proceeded cleanly, as shown by an isosbestic point at 365 nm in spectra of a solution photolyzed for increasing times to at least 65% conversion, but the photoproduct of the protecting group was not the 7-nitroindoline 12 (λmax 450 nm) expected from the previous report (6a). […] Further confirmation of the presence of a nitroso group was that treatment of 13, R=CH2CO2Me) with a thiol readily abolished the 412 nm chromophore, presumably by conversion to the corresponding hydroxylamine (11, 12). […] In control experiments, photolysis of the glutaryl compound 8 in CH2Cl2-dioxane-H2O (2:3:0.05) cleanly gave the expected (6a) nitroindoline 12.

[4] = Flash photolysis with time-resolved UV-VIS absorption spectroscopy, proton release (pH indicator); format: physicochemical; conditions: 320 nm laser, 1 ms pulse, 20° C.
Text: (§2) Formation of different products in different solvents requires a change of mechanism and there is some precedent for photoreactivity of nitroaryl compounds in aqueous solution that was not observed in organic solvents. […] Second, we have investigated the kinetics of product formation, specifically of the released proton and carboxylate. […] The latter process may correspond with the slow phase of proton release described above. An overlapping band on the high-frequency side of the main 1553 cm^−1 band makes definitive interpretation of the signals uncertain.

[5] = Analytical photolysis of 8 in organic and aqueous solvents; format: physicochemical; conditions: CH2Cl2-dioxane-H2O mixture vs aqueous solution, equimolar solutions
Experimental: Analytical photolysis of 8 in organic and aqueous solvents. Solutions (˜[…]) of 8 in either CH2Cl2-dioxane-H2O (2:3:0.05) or 25 mM Na phosphate, pH 7.0 were irradiated in air for times between 0 and 16 min in a 1-cm path length cell with light from a 100 W xenon arc lamp, filtered through a Hoya 340 filter.
as §1

[6] = Hydrolytic stability of 1-acyl-7-nitroindolines (reverse-phase HPLC); format: physicochemical; conditions: 62.5 mM Na phosphate, pH 12.01, 30° C.
Experimental: The extent of hydrolysis was determined by reverse-phase HPLC analysis (mobile phase 25 mM Na phosphate, pH 6.0+10% MeOH, 1.5 ml/min). […] Quantification was based on peak heights compared to those of unhydrolysed controls (to). First-order rate constants for hydrolysis were obtained from single exponential fits to the data.
In addition to the release rate of the bioeffector species following flash irradiation, important properties of any caged compound include stability in aqueous solution and its extent of photolysis upon a single flash irradiation.
In this context, hydrolytic stability refers to the amide bond. […] The use of the free acids avoided analytical complications from the much faster cleavage of the ester group.

[7] = Flash photolysis with time-resolved IR measurements, carboxylate formation; format: physicochemical; conditions: 1557 cm^−1, 351 nm laser, 9 ns pulse, 25° C., pH 7
Text: as §2

glutamate ion channels = test: Whole-cell patch clamp of cultured rat cerebellar granule neurones, with and without flash photolysis; format: cell-based; conditions: with and without iontophoretic application of L-glutamate
Experimental: The caged L-glutamate reagent 10 was tested in primary cultures of rat cerebellar granule neurones for its pharmacological actions and ability to effect photolytic activation of glutamate ion channels. All electrophysiological experiments were performed in Mg^2+-free mammalian Ringer's solution containing 100 μM glycine. Cells were voltage clamped at −65 mV with whole-cell patch clamp (17) and the glutamate sensitivity was established by responses to 20 ms pulses of L-glutamate, applied at a frequency of 0.25 Hz by iontophoresis from a 1-μm tipped glass pipette. […] The latter most likely arises from glutamate diffusion away from the photolyzed region. The time course of the initial decline may represent desensitization of non-NMDA glutamate channels.
During the slow decline there was a clear increase in the low frequency noise of the glutamate-activated current compared to baseline, consistent with gating of glutamate-activated ion channels.

[8] = Water solubility (stated in words); format: physicochemical
[9] = pH 7,21° C.; cited from earlier work

Conversion by a single flash ([1]; 347 nm laser flash, ~90 mJ, 0.5 mM, pH 7 phosphate buffer): 23%
Extinction coefficient at 347 nm ([1]; used to calculate relative quantum yields): 510 M⁻¹ cm⁻¹
Compound: CC(OP(=O)(O)O)c1ccccc1[N+](=O)[O-] (stereo not drawn) [1-(2-nitrophenylethyl) phosphate, 1-(2-Nitrophenylethyl) phosphate, reference compound]
Product quantum yield, known value [2]: 0.54

Extent of conversion (photolysis) [3]: 40%
Fold more efficient photolysis in organic solvent than in water [5]: at least 2 fold
Compound: COC(=O)Cc1cc2c(c([N+](=O)[O-])c1)N(C(=O)CCCC(=O)O)CC2 [Compound 8, Methyl 1-glutaryl-7-nitroindoline-5-acetate]
Proton release, rate of smaller component ([4]; pH 7): ~9 s⁻¹
Proton release, time course of major component ([4]; pH 7): complete within the laser pulse
Proton release, major component share of signal ([4]; pH 7, Bromothymol Blue): ~85%

Half-times for hydrolysis (amide hydrolysis) [6]: 29 h
Water solubility [8]: highly water-soluble
Compound: COC(=O)Cc1cc2c(c([N+](=O)[O-])c1)N(C(=O)CCCCOP(=O)(O)O)CC2 [Compound 9]
Carboxylate formation, exponential rate of major component [7]: ~2700 s⁻¹
Carboxylate formation, exponential rate of minor component [7]: ~10 s⁻¹
Carboxylate formation, major component share of absorption increase [7]: ~80%
Effect of the caged compound before, during and after photolysis (glutamate ion channels): no effect

Compound: N-carboxyglutamate
Decarboxylation rate k [9]: ~150 s⁻¹
